Assay results as given in patent US20250270209A1 (INTERLINE THERAPEUTICS, INC., priority 2022, published 2025).

Columns and labels:
[1] = target: T1, wild type LRRK2 overexpressed in recombinant HEK-293T cells (Homo sapiens, UniProt Q5S007); assay: pS935 LRRK2 Cell Assay (HTRF, phospho-LRRK2 Ser935); format: cell-based; conditions: LRRK2 Inhibition, Table 8, 2 hours compound incubation
T1 construct: host or cells: HEK293T (transient transfection with pCMV-LRRK2 WT plasmid)
Summary of the method: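 HEK-293T cells transiently transfected with wild-type LRRK2 for 24 h, plated overnight, then treated 2 h at 37° C with compound (top 10 μM, 3-fold, 9 doses, duplicates, 0.2% DMSO). Lysates probed overnight at 23° C by sandwich HTRF for pSer935; 665/615 nm ratio read.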

LRRK2 wild type enzyme = LRRK2 wild type enzyme (Homo sapiens, UniProt Q5S007); assay: Biochemical Assay: LRRK2 TR-FRET (LanthaScreen) kinase assay with LRRKtide substrate; conditions: LRRK2 Inhibition, Table 8
LRRK2 wild type enzyme, sequence (Q5S007 whole entry): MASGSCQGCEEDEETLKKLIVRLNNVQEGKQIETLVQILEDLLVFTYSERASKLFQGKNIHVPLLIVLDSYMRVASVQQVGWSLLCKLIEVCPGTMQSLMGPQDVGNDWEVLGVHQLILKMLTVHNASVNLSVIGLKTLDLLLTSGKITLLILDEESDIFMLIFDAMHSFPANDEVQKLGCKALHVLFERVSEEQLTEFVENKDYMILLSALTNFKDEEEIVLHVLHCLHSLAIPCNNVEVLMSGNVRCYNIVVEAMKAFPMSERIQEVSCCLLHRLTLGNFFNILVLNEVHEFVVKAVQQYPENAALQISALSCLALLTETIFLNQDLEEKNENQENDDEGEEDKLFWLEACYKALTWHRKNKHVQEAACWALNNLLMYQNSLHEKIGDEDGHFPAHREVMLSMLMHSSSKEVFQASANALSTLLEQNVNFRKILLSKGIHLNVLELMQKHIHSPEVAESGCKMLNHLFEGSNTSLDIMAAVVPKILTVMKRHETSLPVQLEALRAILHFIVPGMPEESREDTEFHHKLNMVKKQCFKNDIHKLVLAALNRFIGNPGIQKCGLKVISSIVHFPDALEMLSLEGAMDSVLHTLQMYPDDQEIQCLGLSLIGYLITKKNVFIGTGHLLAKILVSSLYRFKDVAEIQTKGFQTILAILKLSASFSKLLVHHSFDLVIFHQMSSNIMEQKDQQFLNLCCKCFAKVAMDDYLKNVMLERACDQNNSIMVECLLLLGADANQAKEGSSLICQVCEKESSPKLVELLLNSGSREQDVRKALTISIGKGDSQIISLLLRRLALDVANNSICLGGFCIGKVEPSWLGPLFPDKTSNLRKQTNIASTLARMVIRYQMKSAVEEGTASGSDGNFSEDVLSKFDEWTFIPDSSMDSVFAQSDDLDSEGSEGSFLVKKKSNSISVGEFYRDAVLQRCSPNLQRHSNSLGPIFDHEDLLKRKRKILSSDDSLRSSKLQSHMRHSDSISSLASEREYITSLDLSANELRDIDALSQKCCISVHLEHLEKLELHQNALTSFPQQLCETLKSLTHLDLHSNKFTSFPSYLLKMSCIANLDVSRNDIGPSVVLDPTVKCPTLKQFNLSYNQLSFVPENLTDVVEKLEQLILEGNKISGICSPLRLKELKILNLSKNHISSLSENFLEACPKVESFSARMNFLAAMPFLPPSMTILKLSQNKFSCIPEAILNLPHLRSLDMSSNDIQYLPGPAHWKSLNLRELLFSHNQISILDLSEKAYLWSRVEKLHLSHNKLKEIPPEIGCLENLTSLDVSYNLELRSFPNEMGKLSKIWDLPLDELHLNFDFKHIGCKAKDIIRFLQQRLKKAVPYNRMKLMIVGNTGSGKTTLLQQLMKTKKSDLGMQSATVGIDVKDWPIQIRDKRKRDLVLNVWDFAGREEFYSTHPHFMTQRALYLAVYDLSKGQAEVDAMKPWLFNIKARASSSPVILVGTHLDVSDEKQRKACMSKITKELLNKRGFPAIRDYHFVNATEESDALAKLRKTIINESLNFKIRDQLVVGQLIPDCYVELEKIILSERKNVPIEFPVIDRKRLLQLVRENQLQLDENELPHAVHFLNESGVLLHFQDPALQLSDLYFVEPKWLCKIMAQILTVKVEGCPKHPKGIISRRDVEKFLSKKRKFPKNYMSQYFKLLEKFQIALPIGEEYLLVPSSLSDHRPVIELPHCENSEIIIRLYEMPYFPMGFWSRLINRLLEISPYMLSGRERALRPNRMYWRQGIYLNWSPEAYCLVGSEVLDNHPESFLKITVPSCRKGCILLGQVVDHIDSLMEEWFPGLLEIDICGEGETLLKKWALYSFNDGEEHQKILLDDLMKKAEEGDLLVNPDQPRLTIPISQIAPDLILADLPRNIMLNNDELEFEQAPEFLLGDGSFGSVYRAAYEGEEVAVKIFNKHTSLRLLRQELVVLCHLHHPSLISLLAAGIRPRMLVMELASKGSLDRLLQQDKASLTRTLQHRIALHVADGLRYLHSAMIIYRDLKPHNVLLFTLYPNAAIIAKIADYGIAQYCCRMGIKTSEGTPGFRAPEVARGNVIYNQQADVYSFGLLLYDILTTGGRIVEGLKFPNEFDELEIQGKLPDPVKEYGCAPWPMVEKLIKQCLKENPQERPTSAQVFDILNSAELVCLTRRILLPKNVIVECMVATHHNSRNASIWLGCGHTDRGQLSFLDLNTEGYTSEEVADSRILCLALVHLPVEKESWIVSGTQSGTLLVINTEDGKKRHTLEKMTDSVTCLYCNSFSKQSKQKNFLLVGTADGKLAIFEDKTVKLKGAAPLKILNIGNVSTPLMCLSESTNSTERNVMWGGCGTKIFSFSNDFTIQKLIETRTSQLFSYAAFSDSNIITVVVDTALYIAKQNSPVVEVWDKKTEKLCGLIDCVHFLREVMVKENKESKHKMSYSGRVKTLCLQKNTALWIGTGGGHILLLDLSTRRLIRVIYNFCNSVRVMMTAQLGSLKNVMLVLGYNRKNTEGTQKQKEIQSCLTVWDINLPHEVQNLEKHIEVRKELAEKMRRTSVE
Summary of the method: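 Human wild-type LRRK2 (3 nM) preincubated 15 min with compound (11-point, 3-fold, top 10 μM), then reacted 120 min at 23 °C with 400 nM LRRKtide and 25 μM ATP, pH 8.0. Stopped with EDTA; Tb-anti-pLRRKtide TR-FRET read after 30 min.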

T1 sequence (Q5S007 whole entry): as above

Structure (SMILES) | IC50 [1] [nM] | IC50 (LRRK2 wild type enzyme) [nM]
C[C@@H]1C[C@H](n2c(CC(=O)NCc3cnccn3)nc3cnc4ccc(Cl)cc4c32)CCO1 [Compound 150, 2-{8-chloro-1-[(2R,4R)-2-methyloxan-4-yl]-1H-imidazo[4,5-c]quinolin-2-yl}-N-[(pyrazin-2-yl)methyl]acetamide] | 7.19 | 0.47
C[C@@H]1C[C@H](n2c(CC3CN(C(=O)OC(C)(C)C)C3)nc3cnc4ccc(C#N)cc4c32)CCO1 [Compound 73, tert-butyl 3-({8-cyano-1-[(2R,4R)-2-methyloxan-4-yl]-1H-imidazo[4,5-c]quinolin-2-yl}methyl)azetidine-1-carboxylate] | 251 | 3.88
C[C@@H]1C[C@H](n2c(CN)nc3cnc4ccc(C#N)cc4c32)CCO1 [Compound 32, 2-(aminomethyl)-1-[(2R,4R)-2-methyloxan-4-yl]-1H-imidazo[4,5-c]quinoline-8-carbonitrile] | 425 | 5.55
C[C@@H]1C[C@H](n2c(CC(=O)Nc3cc(C(F)(F)F)no3)nc3cnc4ccc(C#N)cc4c32)CCO1 [Compound 342, N-[3-(trifluoromethyl)-5-isoxazolyl]{3-[(2R,4R)-2-methyltetrahydro-2H-pyran-4-yl]-12-cyano-3,5,8-triazatricyclo[7.4.0.0^2,6]trideca-1(9),2(6),4,7,10,12-hexaen-4-yl}acetamide] | 75.1 | 2.17
C[C@@H]1C[C@H](n2c(CC(=O)Nc3nccc(C(F)(F)F)n3)nc3cnc4ccc(C#N)cc4c32)CCO1 [Compound 361, N-[4-(trifluoromethyl)-2-pyrimidinyl]{3-[(2R,4R)-2-methyltetrahydro-2H-pyran-4-yl]-12-cyano-3,5,8-triazatricyclo[7.4.0.0^2,6]trideca-1(9),2(6),4,7,10,12-hexaen-4-yl}acetamide] | 4.23 | 0.454
C[C@@H]1C[C@H](n2c(CC(=O)NC3CC34CC4)nc3cnc4ccc(C#N)cc4c32)CCO1 (stereo partly drawn) [Compound 249, N-1-spiro[2.2]pentyl{3-[(2R,4R)-2-methyltetrahydro-2H-pyran-4-yl]-12-cyano-3,5,8-triazatricyclo[7.4.0.0^2,6]trideca-1(9),2(6),4,7,10,12-hexaen-4-yl}acetamide] | 17.4 | 0.691
CCn1cc(NC(=O)Cc2nc3cnc4ccc(C#N)cc4c3n2[C@@H]2CCO[C@H](C)C2)cn1 [Compound 310, N-(1-ethyl-4-pyrazolyl){3-[(2R,4R)-2-methyltetrahydro-2H-pyran-4-yl]-12-cyano-3,5,8-triazatricyclo[7.4.0.0^2,6]trideca-1,4,6,8,10,12-hexaen-4-yl}acetamide] | 15.4 | 0.712
C[C@@H]1C[C@H](n2c(CC(=O)NC3CCOCC3)nc3cnc4ccc(C#N)cc4c32)CCO1 [Compound 4, 2-{8-cyano-1-[(2R,4R)-2-methyloxan-4-yl]-1H-imidazo[4,5-c]quinolin-2-yl}-N-(oxan-4-yl)acetamide] | 57.5 | 0.551
Cc1onc(NC(=O)Cc2nc3cnc4ccc(C#N)cc4c3n2[C@@H]2CCO[C@H](C)C2)c1C [Compound 356, N-(4,5-dimethyl-3-isoxazolyl){3-[(2R,4R)-2-methyltetrahydro-2H-pyran-4-yl]-12-cyano-3,5,8-triazatricyclo[7.4.0.0^2,6]trideca-1(9),2(6),4,7,10,12-hexaen-4-yl}acetamide] | 7.78 | 0.439
C[C@@H]1C[C@H](n2c(CC(=O)NCC(F)(F)CO)nc3cnc4ccc(C#N)cc4c32)CCO1 [Compound 233, N-(2,2-difluoro-3-hydroxypropyl){3-[(2R,4R)-2-methyltetrahydro-2H-pyran-4-yl]-12-cyano-3,5,8-triazatricyclo[7.4.0.0^2,6]trideca-1,4,6,8,10,12-hexaen-4-yl}acetamide] | 247 | 0.837
Cc1nc2n(n1)CC(NC(=O)Cc1nc3cnc4ccc(C#N)cc4c3n1[C@@H]1CCO[C@H](C)C1)CC2 (stereo partly drawn) [Compound 244, N-(2-methyl-4,5,6,7-tetrahydro-1,3,3a-triaza-5-indenyl){3-[(2R,4R)-2-methyltetrahydro-2H-pyran-4-yl]-12-cyano-3,5,8-triazatricyclo[7.4.0.0^2,6]trideca-1,4,6,8,10,12-hexaen-4-yl}acetamide] | 2630 | 1.39
C[C@@H]1C[C@H](n2c(CC(=O)NC3CCC3)nc3cnc4ccc(Cl)cc4c32)CCO1 [Compound 332, N-cyclobutyl{3-[(2R,4R)-2-methyltetrahydro-2H-pyran-4-yl]-12-chloro-3,5,8-triazatricyclo[7.4.0.0^2,6]trideca-1(9),2(6),4,7,10,12-hexaen-4-yl}acetamide] | 10.9 | 0.741
COCC1(NC(=O)Cc2nc3cnc4ccc(C#N)cc4c3n2[C@@H]2CCO[C@H](C)C2)CC1 [Compound 276] | 86 | 0.922
C[C@@H]1C[C@H](n2c(CC(=O)N[C@H]3C[C@@H](OCc4ccccn4)C3)nc3cnc4ccc(C#N)cc4c32)CCO1 [Compound 162, 2-{8-cyano-1-[(2R,4R)-2-methyloxan-4-yl]-1H-imidazo[4,5-c]quinolin-2-yl}-N-[(1rs,3rs)-3-[(pyridin-2-yl)methoxy]cyclobutyl]acetamide] | 55.2 | 0.485
C[C@@H]1C[C@H](n2c(CC(=O)Nc3ccc(OC(F)F)nc3)nc3cnc4ccc(C#N)cc4c32)CCO1 [Compound 293, N-(6-difluoromethoxy-3-pyridyl){3-[(2R,4R)-2-methyltetrahydro-2H-pyran-4-yl]-12-cyano-3,5,8-triazatricyclo[7.4.0.0^2,6]trideca-1,4,6,8,10,12-hexaen-4-yl}acetamide] | 9.81 | 0.514
C[C@@H]1C[C@H](n2c(CC(=O)NC(C)(C)c3ccccn3)nc3cnc4ccc(C#N)cc4c32)CCO1 [Compound 185, 2-{8-cyano-1-[(2R,4R)-2-methyloxan-4-yl]-1H-imidazo[4,5-c]quinolin-2-yl}-N-[2-(pyridin-2-yl)propan-2-yl]acetamide] | 2.56 | 0.42
C[C@@H]1C[C@H](n2c(CCC(=O)NCC3CC3)nc3cnc4ccc(C#N)cc4c32)CCO1 [Compound 170, 3-{8-cyano-1-[(2R,4R)-2-methyloxan-4-yl]-1H-imidazo[4,5-c]quinolin-2-yl}-N-(cyclopropylmethyl)propanamide] | 329 | 3.11
Cc1ncc(NC(=O)Cc2nc3cnc4ccc(C#N)cc4c3n2[C@@H]2CCO[C@H](C)C2)c(C)n1 [Compound 261, N-(2,4-dimethyl-5-pyrimidinyl){3-[(2R,4R)-2-methyltetrahydro-2H-pyran-4-yl]-12-cyano-3,5,8-triazatricyclo[7.4.0.0^2,6]trideca-1,4,6,8,10,12-hexaen-4-yl}acetamide] | 10.4 | 0.512
CC(C)Oc1ccc(NC(=O)Cc2nc3cnc4ccc(C#N)cc4c3n2[C@@H]2CCO[C@H](C)C2)cn1 [Compound 273, N-(6-isopropoxy-3-pyridyl){3-[(2R,4R)-2-methyltetrahydro-2H-pyran-4-yl]-12-cyano-3,5,8-triazatricyclo[7.4.0.0^2,6]trideca-1,4,6,8,10,12-hexaen-4-yl}acetamide] | 5.59 | 0.478
COc1cc(C(F)(F)F)ncc1NC(=O)Cc1nc2cnc3ccc(C#N)cc3c2n1[C@@H]1CCO[C@H](C)C1 [Compound 228, N-[4-methoxy-6-(trifluoromethyl)-3-pyridyl]{3-[(2R,4R)-2-methyltetrahydro-2H-pyran-4-yl]-12-cyano-3,5,8-triazatricyclo[7.4.0.0^2,6]trideca-1,4,6,8,10,12-hexaen-4-yl}acetamide] | 3.17 | 0.36
C[C@@H]1C[C@H](n2c(CC(=O)NC3CCc4cccnc43)nc3cnc4ccc(C#N)cc4c32)CCO1 (stereo partly drawn) [Compound 151, 2-{8-cyano-1-[(2R,4R)-2-methyloxan-4-yl]-1H-imidazo[4,5-c]quinolin-2-yl}-N-{5H,6H,7H-cyclopenta[b]pyridin-7-yl}acetamide] | 23.3 | 0.55
C[C@@H]1C[C@H](n2c([C@@H]3CCC(=O)N3)nc3cnc4ccc(C#N)cc4c32)CCO1 [Compound 71, 1-[(2R,4R)-2-methyloxan-4-yl]-2-[(2S)-5-oxopyrrolidin-2-yl]-1H-imidazo[4,5-c]quinoline-8-carbonitrile] | 4790 | 5.49
C[C@@H]1C[C@H](n2c(CC(=O)NCC(F)(F)F)nc3cnc4ccc(C#N)cc4c32)CCO1 [Compound 186, 2-{8-cyano-1-[(2R,4R)-2-methyloxan-4-yl]-1H-imidazo[4,5-c]quinolin-2-yl}-N-(2,2,2-trifluoroethyl)acetamide] | 43.9 | 0.556
C[C@@H]1C[C@H](n2c(CC(=O)Nc3cnc(C(F)(F)F)nc3)nc3cnc4ccc(C#N)cc4c32)CCO1 [Compound 321, N-[2-(trifluoromethyl)-5-pyrimidinyl]{3-[(2R,4R)-2-methyltetrahydro-2H-pyran-4-yl]-12-cyano-3,5,8-triazatricyclo[7.4.0.0^2,6]trideca-1(9),2(6),4,7,10,12-hexaen-4-yl}acetamide] | 25.2 | 0.66
C[C@@H]1C[C@H](n2c(CC(=O)N[C@@H]3CCCc4cccnc43)nc3cnc4ccc(C#N)cc4c32)CCO1 [Compound 357, N-[(R)-5,6,7,8-tetrahydro-8-quinolyl]{3-[(2R,4R)-2-methyltetrahydro-2H-pyran-4-yl]-12-cyano-3,5,8-triazatricyclo[7.4.0.0^2,6]trideca-1(9),2(6),4,7,10,12-hexaen-4-yl}acetamide] | 10.7 | 0.628
